Consider 25 molecules from EP2951180B1, “2,6,7,8 SUBSTITUTED PURINES AS HDM2 INHIBITORS” (Merck Sharp & Dohme Corp., priority 2013, dated 2014).

This experiment addresses T1, HDM2 (Homo sapiens, UniProt Q00987).
T1 construct: Thioredoxin (N); made in house; host or cells: E. coli strain BL21(DE3)Rosetta
Kind of experiment: HDM2 FRET assay (inhibition of binding of FITC labeled p53-pocket peptide to HDM2). The note with it: for IC50: read-out: FRET IC50. In a few lines: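 TR-FRET with 0.5 nM His-tagged recombinant HDM2, 3 nM FITC-labelled p53 peptide and 0.25 nM Tb-anti-His antibody in PBS, 0.01% BSA, 0.01% Tween-20, 0.1% DMSO. IC50 from em520/em495 ratio over 10-point dilutions, 4-parameter logistic fit.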

Setting [1] is: 0.5 nM HDM2 (residues 17 to 125), 3nM peptide, two hour incubation at room temperature.

Structures are written as SMILES. Like-named read-outs stand apart in the source and are kept apart here.

T1 sequence (Q00987 17-125): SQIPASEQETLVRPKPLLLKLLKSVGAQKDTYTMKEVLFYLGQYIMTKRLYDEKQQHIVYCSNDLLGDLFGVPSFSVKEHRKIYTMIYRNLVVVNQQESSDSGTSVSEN

For the molecule `C[C@H]1CC[C@H](Cn2c(N3CCC[C@H]3CF)nc3nc(-c4n[nH]c(=O)o4)nc(-c4cncc(Cl)c4)c32)CC1` [Example 16.104, 5-{6-(5-chloropyridin-3-yl)-8-[(2S)-2-(fluoromethyl)pyrrolidin-1-yl]-7-[(trans-4-methylcyclohexyl)methyl]-7H-purin-2-yl}-1,3,4-oxadiazol-2(3H)-one], the IC50 under setting [1] came to 3.91 nM.

Turning to `C[C@H]1CC[C@H](Cn2c(N3CCOC[C@H]3c3ccccc3)nc3nc(-c4noc(=O)[nH]4)nc(Oc4ccc(Cl)cn4)c32)CC1` [Example 25.2, 3-{6-[(5-chloropyridin-2-yl)oxy]-7-[(trans-4-methylcyclohexyl)methyl]-8-[(3R)-3-phenylmorpholin-4-yl]-7H-purin-2-yl}-1,2,4-oxadiazol-5(4H)-one], the IC50 (Table 25) came to 15.4 nM.

For `O=C(O)c1nc(NCC2CC2)c2c(n1)nc(-c1cccc(Cl)c1)n2Cc1ccc(Cl)cc1` [Example 6.12, 7-(4-chlorobenzyl)-8-(3-chlorophenyl)-6-[(cyclopropylmethyl)amino]-7H-purine-2-carboxylic acid], the IC50 (Table 6) turned out to be 4100 nM.

As to `C[C@@H](Nc1nc(C(=O)NS(=O)(=O)N(C)C)nc2nc(N3CCOC[C@H]3c3ccccc3)n(C[C@H]3CC[C@H](C)CC3)c12)C1CCC1` [Example 12.24, 6-{[(1R)-1-cyclobutylethyl]amino}-N-(dimethylsulfamoyl)-7-[(trans-4-methylcyclohexyl)methyl]-8-[(3R)-3-phenylmorpholin-4-yl]-7H-purine-2-carboxamide], the half-maximal inhibitory concentration (IC50) under setting [1] was 1.41 nM.

For `C[C@H]1CC[C@H](Cn2c(N3CCOC[C@H]3c3ccncc3)nc3nc(-c4noc(=O)[nH]4)nc(-c4cccc(Cl)c4)c32)CC1` [Example 16.96, 3-{6-(3-chlorophenyl)-7-[(trans-4-methylcyclohexyl)methyl]-8-[(3R)-3-pyridin-4-ylmorpholin-4-yl]-7H-purin-2-yl}-1,2,4-oxadiazol-5(4H)-one], under setting [1], the IC50 was found to be 3.29 nM.

Take `C[C@@H](Nc1nc(-c2noc(=O)[nH]2)nc2nc(N(C)[C@@H]3CCCC[C@@H]3O)n(C[C@H]3CC[C@H](C)CC3)c12)C1CCC1` (stereo in doubt) [Example 11.134, 3-(6-{[(1R)-1-cyclobutylethyl]amino}-8-{[(1R,2S)-2-hydroxycyclohexyl] (methyl)amino}-7-[(trans-4-methylcyclohexyl)methyl]-7H-purin-2-yl)-1,2,4-oxadiazol-5(4H)-one]: the IC50 (Table 11) amounted to 9.46 nM.

In the case of `CC(C)CN(C)c1nc2nc(-c3noc(=O)[nH]3)nc(N[C@H](C)C3CCC3)c2n1Cc1ccc(C(F)(F)F)cc1` [Example 9.81, 3-(6-{[(1R)-1-cyclobutylethyl]amino}-8-[methyl(2-methylpropyl)amino]-7-[4-(trifluoromethyl)benzyl]-7H-purin-2-yl)-1,2,4-oxadiazol-5(4H)-one], for the setting “Table 9”, the IC50 stood at 11.6 nM.

On to `CC(C)c1ccnc(-c2nc3nc(C(=O)O)nc(OC(C)C4CCC4)c3n2C[C@H]2CC[C@H](C)CC2)c1` (mixture of isomers) [Example 17.8, 6-(1-cyclobutylethoxy)-7-[(trans-4-methylcyclohexyl)methyl]-8-[4-(propan-2-yl)pyridin-2-yl]-7H-purine-2-carboxylic acid], for which the IC50 under setting [1] stood at 10.3 nM.

Consider `CC1CSCCN1c1nc2nc(-c3noc(=O)[nH]3)nc(N[C@H](C)C3CCC3)c2n1C[C@H]1CC[C@H](C)CC1` (stereo partly drawn) [Example 11.123, 3-[6-{[(1R)-1-cyclobutylethyl]amino}-7-[(trans-4-methylcyclohexyl)methyl]-8-(3-methylthiomorpholin-4-yl)-7H-purin-2-yl]-1,2,4-oxadiazol-5(2H)-one], for which the IC50 (Table 11) turned out to be 4.39 nM.

Regarding `COC(c1ccccc1)c1nc2nc(-c3noc(=O)[nH]3)nc(N[C@H](C)C3CCC3)c2n1C[C@H]1CC[C@H](C)CC1` (single isomer, unassigned) [Example 22.19, 3-(6-{[(1R)-1-cyclobutylethyl]amino}-8-[(R or S)-methoxy(phenyl)methyl]-7-[(trans-4-methylcyclohexyl)methyl]-7H-purin-2-yl)-1,2,4-oxadiazol-5(4H)-one], the IC50 (Table 22) was 7.7 nM.

As for `CC(C)[C@@H]1COCCN1c1nc2nc(-c3n[nH]c(=O)o3)nc(-c3cccc(Cl)c3)c2n1C[C@H]1CC[C@H](C)CC1` [Example 16.75, 5-{6-(3-chlorophenyl)-7-[(trans-4-methylcyclohexyl)methyl]-8-[(3R)-3-(1-methylethyl)morpholin-4-yl]-7H-purin-2-yl}-1,3,4-oxadiazol-2(3H)-one], the IC50 under setting [1] came to 14.7 nM.

Turning to `Cc1cccc(-c2nc3nc(C(=O)O)nc(N(C)C(C)C4CC4)c3n2Cc2ccc(Cl)cc2)c1` (stereo not shown) [Example 6.11, 7-(4-chlorobenzyl)-6-[(1-cyclopropylethyl)(methyl)amino]-8-(3-methylphenyl)-7H-purine-2-carboxylic acid], for the setting “Table 6”, the half-inhibitory concentration (IC50) came to 1420 nM.

For the molecule `Cc1cnc(-c2nc3nc(C(=O)O)nc(N[C@H](C)C4CCC4)c3n2C[C@H]2CC[C@H](C)CC2)cc1C` [Example 15.21, 6-{[(1R)-1-cyclobutylethyl]amino}-8-(4,5-dimethylpyridin-2-yl)-7-[(trans-4-methylcyclohexyl)methyl]-7H-purine-2-carboxylic acid], the half-inhibitory concentration (IC50) under setting [1] is 8.44 nM.

`C[C@H]1CC[C@H](Cn2c(N3CCOC[C@H]3c3ccccc3F)nc3nc(-c4noc(=O)[nH]4)nc(-c4cncc(Cl)c4)c32)CC1` [Example 16.92, 3-{6-(5-chloropyridin-3-yl)-8-[(3R)-3-(2-fluorophenyl)morpholin-4-yl]-7-[(trans-4-methylcyclohexyl)methyl]-7H-purin-2-yl}-1,2,4-oxadiazol-5(4H)-one]: the IC50 under setting [1] turned out to be 0.585 nM.

In the case of `Cc1cccc(-c2nc3nc(C(=O)O)nc(NC(C)CC(C)C)c3n2Cc2ccc(C(F)(F)F)cc2)c1` (stereo not shown) [Example 6.62, 6-[(1,3-dimethylbutyl)amino]-8-(3-methylphenyl)-7-[4-(trifluoromethyl)benzyl]-7H-purine-2-carboxylic acid], the inhibition at 1 µM (read-out: inh. at 1000 nM (FRET)) was 34%.

Regarding `C[C@@H]1OCCN(c2nc3nc(-c4noc(=O)[nH]4)nc(-c4cncc(Cl)c4)c3n2C[C@H]2CC[C@H](C)CC2)[C@@H]1c1ccccc1` [Example 16.129, 3-{6-(5-chloropyridin-3-yl)-7-[(trans-4-methylcyclohexyl)methyl]-8-[(2S,3R)-2-methyl-3-phenylmorpholin-4-yl]-7H-purin-2-yl}-1,2,4-oxadiazol-5(4H)-one], the half-inhibitory concentration (IC50) under setting [1] worked out at 21.9 nM.

As to `Cc1cc(Cl)cc(-c2nc(-c3noc(=O)[nH]3)nc3nc(N4CCOC[C@H]4c4ccccc4)n(C[C@H]4CC[C@H](C)CC4)c23)c1` [Example 16.114, 3-{6-(3-chloro-5-methylphenyl)-7-[(trans-4-methylcyclohexyl)methyl]-8-[(3R)-3-phenylmorpholin-4-yl]-7H-purin-2-yl}-1,2,4-oxadiazol-5(4H)-one], the IC50 under setting [1] is 1.56 nM.

For the molecule `C[C@H]1CC[C@H](Cn2c(N3CCOC[C@H]3c3ccccc3)nc3nc(-c4noc(=O)[nH]4)nc(-n4cc(Cl)ccc4=O)c32)CC1` [Example 25.1, 5-chloro-1-{7-[(trans-4-methylcyclohexyl)methyl]-2-(5-oxo-4,5-dihydro-1,2,4-oxadiazol-3-yl)-8-[(3R)-3-phenylmorpholin-4-yl]-7H-purin-6-yl}pyridin-2(1H)-one], the IC50 (Table 25) came out at 1.01 nM.

For the molecule `COC(c1ccccc1F)c1nc2nc(-c3n[nH]c(=O)o3)nc(-c3cncc(Cl)c3)c2n1C[C@H]1CC[C@H](C)CC1` (mixture of isomers) [Example 23.103, 5-{6-(5-chloropyridin-3-yl)-8-[(2-fluorophenyl)(methoxy)methyl]-7-[(trans-4-methylcyclohexyl)methyl]-7H-purin-2-yl}-1,3,4-oxadiazol-2(3H)-one], the IC50 (Table 23) was 1.7 nM.

Turning to `Cc1cccc(-c2nc3nc(C(=O)O)nc(N[C@H](C)C4CC4)c3n2Cc2ccc(Cl)c(F)c2)c1` [Example 6.17, 7-(4-chloro-3-fluorobenzyl)-6-{[(1R)-1-cyclopropylethyl]amino}-8-(3-methylphenyl)-7H-purine-2-carboxylic acid], under “Table 6”, the IC50 was 25.8 nM.

For `CC(C)c1ccnc(-c2nc3nc(C(C)(C)O)nc(N[C@H](C)C4CCC4)c3n2C[C@H]2CC[C@H](C)CC2)c1` [Example 12.7, 2-(6-{[(1R)-1-cyclobutylethyl]amino}-7-[(trans-4-methylcyclohexyl)methyl]-8-[4-(propan-2-yl)pyridin-2-yl]-7H-purin-2-yl)propan-2-ol], the IC50 under setting [1] came to 731 nM.

Turning to `C[C@@H](Nc1nc(-c2noc(=O)[nH]2)nc2nc(N3CCC[C@@H]4CCCC[C@H]43)n(C[C@H]3CC[C@H](C)CC3)c12)C1CCC1` [Example 11.61, 3-(6-{[(1R)-1-cyclobutylethyl]amino}-7-[(trans-4-methylcyclohexyl)methyl]-8-[(4aS,8aR)-octahydroquinolin-1(2H)-yl]-7H-purin-2-yl)-1,2,4-oxadiazol-5(4H)-one], the concentration for half-maximal inhibition (IC50) (Table 11) is 5.13 nM.

Turning to `COCC1CN(c2nc3nc(C(=O)O)nc(N[C@H](C)C4CCC4)c3n2Cc2ccc(C(F)(F)F)cc2)CCO1` (stereo partly drawn) [Example 9.24, 6-{[(1R)-1-cyclobutylethyl]amino}-8-[2-(methoxymethyl)morpholin-4-yl]-7-[4-(trifluoromethyl)benzyl]-7H-purine-2-carboxylic acid], under “Table 9”, the IC50 is 72.9 nM.

`C[C@H]1CC[C@H](Cn2c(N3CCOC[C@H]3c3ccc(F)cc3)nc3nc(-c4n[nH]c(=O)o4)nc(-c4cncc(Cl)c4)c32)CC1` [Example 16.94, 5-{6-(5-chloropyridin-3-yl)-8-[(3R)-3-(4-fluorophenyl)morpholin-4-yl]-7-[(trans-4-methylcyclohexyl)methyl]-7H-purin-2-yl}-1,3,4-oxadiazol-2(3H)-one]: the half-inhibitory concentration (IC50) under setting [1] was 1.98 nM.

With `Cc1cccc(-c2nc3nc(C(=O)O)nc(OCC4CCC4)c3n2Cc2ccc(C(F)(F)F)cc2)c1` [Example 17.3, 6-(cyclobutylmethoxy)-8-(3-methylphenyl)-7-[4-(trifluoromethyl)benzyl]-7H-purine-2-carboxylic acid], the IC50 under setting [1] was 192 nM.

A word on the IC50: it is the midpoint of a concentration-inhibition curve.
